Test results from patent US11274332B2, “Methods of administering 3,4-diaminopyridine” (SERB SA, priority 2011, dated 2022).

Biological target: T1, cloned human Kv1.1 potassium channel (Homo sapiens, UniProt Q09470)
T1 construct: expressed in transfected cells
Assay: PatchXpress inhibition of cloned human Kv1.1 in HEK293 cells (Example 6)
Type: cell-based
Conditions: hKv1.1, up to 3000 μM
Source text: The objective of this study was to examine the in vitro effects and determine the […] of 3,4-DAP phosphate and the metabolite N-(4-aminopyridin-3-yl) acetamide HCl on the following ion channels: cloned human Kv1.1 potassium channel (encoded by the human KCNA1 gene, expressed in HEK293 cells), cloned human Kv1.2 potassium channel (encoded by the human KCNA2 gene, expressed in HEK293 cells), cloned human Kv1.3 potassium channel (encoded by the human KCNA3 gene, expressed in CHO cells), cloned human Kv1.4 potassium channel (encoded by the human KCNA4 gene, expressed in HEK293 cells), cloned human Kv1.5 potassium channel (encoded by the human KCNA5 gene and expressed in CHO cells), responsible for IKur, ultra-rapid delayed rectifier potassium current.
Chemicals used in solution preparation were purchased from Sigma-Aldrich (St. Louis, Mo.), unless otherwise noted, and were of ACS reagent grade purity or higher. Stock solutions of each test article (100 mM, 30 mM and 1.00 mM 3,4-DAP phosphate and 100 mM N-(4-aminopyridin-3-yl)acetamide) were prepared in sterile water and stored refrigerated. […]
In preparation for a recording session, intracellular solution was loaded into the intracellular compartments of the Sealchip16. […] After establishment of a whole-cell configuration, membrane currents were recorded using dual-channel patch clamp amplifiers in the PatchXpress®. […]

T1 sequence (Q09470 whole entry): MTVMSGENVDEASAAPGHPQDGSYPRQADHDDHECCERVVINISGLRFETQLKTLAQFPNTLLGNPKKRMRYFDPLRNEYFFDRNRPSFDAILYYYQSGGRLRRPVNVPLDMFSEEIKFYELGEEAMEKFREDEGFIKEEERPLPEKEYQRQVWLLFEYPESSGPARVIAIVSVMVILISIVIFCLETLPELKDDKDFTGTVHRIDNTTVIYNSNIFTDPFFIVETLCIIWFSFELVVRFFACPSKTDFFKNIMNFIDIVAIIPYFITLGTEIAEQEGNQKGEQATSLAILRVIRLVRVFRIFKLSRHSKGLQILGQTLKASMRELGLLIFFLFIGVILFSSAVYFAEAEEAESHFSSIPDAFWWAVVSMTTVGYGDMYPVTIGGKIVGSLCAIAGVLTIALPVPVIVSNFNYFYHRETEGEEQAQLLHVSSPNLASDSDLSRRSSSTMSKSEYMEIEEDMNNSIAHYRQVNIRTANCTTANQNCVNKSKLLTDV

SMILES: CC(=O)Nc1cnccc1N [3-N-acetyl amifampridine, N-(4-aminopyridin-3-yl)acetamide]
- activity on K+ channel: inactive
- activity on K+ channel (listed as N-acetyl metabolite): not active
